Results from patent publication US20100248390A1, “COMPOSITIONS AND METHODS FOR IDENTIFYING LIGANDS OF ODORANT RECEPTORS” (DUKE UNIVERSITY, priority 2009, published 2010).

Legend:
Assay in all cases: CRE-luciferase assay of odorant receptor activation (Dual-Glo, Hana3A cells, RTP1S), dose-response EC50
Format in all cases: cell-based
[1] = target: T1, human odorant receptors (ORs) (Homo sapiens, UniProt Q8TCB6); settings: receptor OR51E1
T1 construct: OR open reading frames were amplified from genomic DNA; expressed in transfected cells; host or cells: Hana3A cells, co-transfected with RTP1S, CRE-luciferase and pRL-SV40
T1 sequence (Q8TCB6 1-318): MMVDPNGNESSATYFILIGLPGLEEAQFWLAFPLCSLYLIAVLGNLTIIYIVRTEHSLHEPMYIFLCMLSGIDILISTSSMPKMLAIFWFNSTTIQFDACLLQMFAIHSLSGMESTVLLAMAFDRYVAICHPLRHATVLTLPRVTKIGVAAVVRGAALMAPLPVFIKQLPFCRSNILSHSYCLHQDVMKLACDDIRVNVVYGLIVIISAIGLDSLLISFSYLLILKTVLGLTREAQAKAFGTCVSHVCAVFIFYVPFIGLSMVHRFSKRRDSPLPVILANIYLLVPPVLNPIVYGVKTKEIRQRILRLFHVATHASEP
Excerpt: (§1) Cloning mouse and human ORs. […] OR open reading frames were amplified from genomic DNA using proofreading KOD DNA polymerase (Toyobo/Novagen) and subcloned into pCI expression vectors (Promega) containing the first 20 residues of human rhodopsin (Rho tag). The sequences of the cloned receptors were verified by sequencing (3100 Genetic Analyzer, ABI Biosystems). Immunocytochemistry and FACS analysis. […] For FACS analysis, phycoerythrin (PE)-conjugated anti-mouse IgG (Jackson Immunologicals) was used. In order to monitor the transfection efficiency, Green Fluorescent Protein (GFP) was co-transfected with the OR. The intensity of receptor cell surface expression was calculated as the ratio of PE and GFP expression. 7-aminoactinomycin D (Calbiochem) was added before flow cytometry to mark dead cells which were excluded from the analysis. The gate and mean of PE positive cells was normalized by GFP values. Luciferase assay. […] Odorant receptor activation leads to an increase in intracellular cAMP; CRE-luciferase (Stratagene) was used to measure this change. […] Hana3A cells were plated on poly-D-lysine-coated 96-well plates (BioCoat; Becton Dickinson). […] For each 96-well plate transfected, 1 μg of CRE-Luc, 1 μg of pRL-SV40, 5 μg of odorant receptor plasmid, and 1 μg of RTP1S was used. Approximately 24 hours post transfection, the medium was replaced with CD293 chemically defined medium (Gibco) and the plate was incubed for 30 min at 37° C. The medium was then replaced with 25 μL of odorant solution diluted in CD293 and the plate was incubated for 4 hrs at 37° C. and 5% CO2. The manufacturer's protocols for measuring luciferase and Renilla luciferase activities was followed. […] All luminescence values were divided by the Renilla Luciferase activity to control for transfection efficiency in a given well. Normalized luciferase activity was calculated using the formula (LN−Lmin)/(Lmax−Lmin), where LN is the luminescence of firefly luciferase in response to the odorant, Lmin is the minimum luciferase value on a plate or set of plates, and Lmax is the maximum luciferase value on a plate or set of plates. The data was analyzed using Microsoft Excel and GraphPad Prism 4. Screening procedure. The entire OR library was stimulated with eight separate odorant mixtures formed from 93 odorants (FIG. 12). […] A comparison between the 93 individual odorants at a 100 μM dose and a no-odor control was performed for all 290 […]. Each comparison was performed in triplicate; statistical significance was assessed by t-test (uncorrected for multiple comparisons). […] A single odorant was used on each plate to avoid cross-contamination, and each OR odorant dose was tested at least three times. The data was fit to a sigmoidal curve. […] Physicochemical descriptors. […] Receptor descriptors. […] Correlations between descriptors and responses. […] All odorants for which there were fewer than 3 responsive receptors were eliminated. […] The Pearson correlation between these two sets of distances was then measured. Optimizing descriptors. […] In this method one begins with an empty set of descriptors. Each descriptor is combined with the previous set of descriptors and correlation values are computed for all of these candidate sets of descriptors. To reduce overfitting, the data is randomly divided into ten subsets and correlation values are computed for each leave-one out subset. The final correlation coefficient for each set of descriptors is the average of the correlation coefficients for each subset.
(§2) The entire OR library was stimulated with one of 8 odorant mixtures drawn from 93 odorants chosen to represent diverse functional groups, sizes, and structures (Table 3). Each mixture was applied at five different concentrations. […] The 93 odorants were then applied individually at 100 μM to the 290 mixture-responsive ORs.

[2] = system: mouse odorant receptors (ORs); settings: for log EC50, MOR203-1: receptor MOR203-1; for log EC50, MOR261-1: receptor MOR261-1
Excerpt: Cloning mouse and human ORs. […] OR open reading frames were amplified from genomic DNA using proofreading KOD DNA polymerase (Toyobo/Novagen) and subcloned into pCI expression vectors (Promega) containing the first 20 residues of human rhodopsin (Rho tag). The sequences of the cloned receptors were verified by sequencing (3100 Genetic Analyzer, ABI Biosystems). Immunocytochemistry and FACS analysis. […] For FACS analysis, phycoerythrin (PE)-conjugated anti-mouse IgG (Jackson Immunologicals) was used. In order to monitor the transfection efficiency, Green Fluorescent Protein (GFP) was co-transfected with the OR. The intensity of receptor cell surface expression was calculated as the ratio of PE and GFP expression. 7-aminoactinomycin D (Calbiochem) was added before flow cytometry to mark dead cells which were excluded from the analysis. The gate and mean of PE positive cells was normalized by GFP values. Luciferase assay. […] Odorant receptor activation leads to an increase in intracellular cAMP; CRE-luciferase (Stratagene) was used to measure this change. […] Hana3A cells were plated on poly-D-lysine-coated 96-well plates (BioCoat; Becton Dickinson). […] For each 96-well plate transfected, 1 μg of CRE-Luc, 1 μg of pRL-SV40, 5 μg of odorant receptor plasmid, and 1 μg of RTP1S was used. Approximately 24 hours post transfection, the medium was replaced with CD293 chemically defined medium (Gibco) and the plate was incubed for 30 min at 37° C. The medium was then replaced with 25 μL of odorant solution diluted in CD293 and the plate was incubated for 4 hrs at 37° C. and 5% CO2. The manufacturer's protocols for measuring luciferase and Renilla luciferase activities was followed. […] All luminescence values were divided by the Renilla Luciferase activity to control for transfection efficiency in a given well. Normalized luciferase activity was calculated using the formula (LN−Lmin)/(Lmax−Lmin), where LN is the luminescence of firefly luciferase in response to the odorant, Lmin is the minimum luciferase value on a plate or set of plates, and Lmax is the maximum luciferase value on a plate or set of plates. The data was analyzed using Microsoft Excel and GraphPad Prism 4. Screening procedure. The entire OR library was stimulated with eight separate odorant mixtures formed from 93 odorants (FIG. 12). […] A comparison between the 93 individual odorants at a 100 μM dose and a no-odor control was performed for all 290 […]. Each comparison was performed in triplicate; statistical significance was assessed by t-test (uncorrected for multiple comparisons). […] A single odorant was used on each plate to avoid cross-contamination, and each OR odorant dose was tested at least three times. The data was fit to a sigmoidal curve. […] Physicochemical descriptors. […] Receptor descriptors. […] Correlations between descriptors and responses. […] All odorants for which there were fewer than 3 responsive receptors were eliminated. For all remaining odorant pairs the Pearson correlation between EC50 vectors and the Euclidean distance between descriptor vectors was calculated. The Pearson correlation between these two sets of distances was then measured. Optimizing descriptors. […] In this method one begins with an empty set of descriptors. Each descriptor is combined with the previous set of descriptors and correlation values are computed for all of these candidate sets of descriptors. To reduce overfitting, the data is randomly divided into ten subsets and correlation values are computed for each leave-one out subset. The final correlation coefficient for each set of descriptors is the average of the correlation coefficients for each subset. The set with the best correlation coefficient then becomes the new set of descriptors and the process is repeated until the correlation coefficient increases by less than 0.004 in three consecutive iterations.

[3] = target: T2, human odorant receptors (ORs) (Homo sapiens, UniProt O76002); settings: receptor OR2J2; 0 = no response; read-out: log EC50, OR2J2 (converted)
T2 construct: OR open reading frames were amplified from genomic DNA; expressed in transfected cells; host or cells: Hana3A cells, co-transfected with RTP1S, CRE-luciferase and pRL-SV40
T2 sequence (O76002 1-312): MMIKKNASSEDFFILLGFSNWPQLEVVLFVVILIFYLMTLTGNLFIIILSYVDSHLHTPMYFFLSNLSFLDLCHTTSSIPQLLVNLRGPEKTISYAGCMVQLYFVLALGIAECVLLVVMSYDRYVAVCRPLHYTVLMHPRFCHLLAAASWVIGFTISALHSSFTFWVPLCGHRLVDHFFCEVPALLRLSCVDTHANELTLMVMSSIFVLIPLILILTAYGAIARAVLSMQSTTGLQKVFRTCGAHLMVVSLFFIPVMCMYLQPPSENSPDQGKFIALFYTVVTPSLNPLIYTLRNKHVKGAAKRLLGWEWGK
Excerpt: as §1, §2

[4] = target: T3, human odorant receptors (ORs) (Homo sapiens, UniProt Q9Y3N9); settings: receptor OR2W1; 0 = no response; read-out: log EC50, OR2W1 (converted)
T3 construct: OR open reading frames were amplified from genomic DNA; expressed in transfected cells; host or cells: Hana3A cells, co-transfected with RTP1S, CRE-luciferase and pRL-SV40
T3 sequence (Q9Y3N9 1-320): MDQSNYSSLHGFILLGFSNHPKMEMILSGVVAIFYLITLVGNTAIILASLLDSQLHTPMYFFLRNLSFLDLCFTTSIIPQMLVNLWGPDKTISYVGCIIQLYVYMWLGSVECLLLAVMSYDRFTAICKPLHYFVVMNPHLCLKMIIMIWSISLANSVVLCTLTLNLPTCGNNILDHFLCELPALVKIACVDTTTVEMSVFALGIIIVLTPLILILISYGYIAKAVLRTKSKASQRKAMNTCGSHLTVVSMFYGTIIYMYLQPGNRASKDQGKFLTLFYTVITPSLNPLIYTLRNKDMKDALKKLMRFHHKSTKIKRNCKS
Excerpt: as §1, §2

[5] = target: T4, human odorant receptors (ORs) (Homo sapiens, UniProt Q8NGJ5); settings: receptor OR51L1; read-out: log EC50 of odorant at OR51L1 (0 = no response) (converted)
T4 construct: OR open reading frames were amplified from genomic DNA; expressed in transfected cells; host or cells: Hana3A cells, co-transfected with RTP1S, CRE-luciferase and pRL-SV40
T4 sequence (Q8NGJ5 1-315): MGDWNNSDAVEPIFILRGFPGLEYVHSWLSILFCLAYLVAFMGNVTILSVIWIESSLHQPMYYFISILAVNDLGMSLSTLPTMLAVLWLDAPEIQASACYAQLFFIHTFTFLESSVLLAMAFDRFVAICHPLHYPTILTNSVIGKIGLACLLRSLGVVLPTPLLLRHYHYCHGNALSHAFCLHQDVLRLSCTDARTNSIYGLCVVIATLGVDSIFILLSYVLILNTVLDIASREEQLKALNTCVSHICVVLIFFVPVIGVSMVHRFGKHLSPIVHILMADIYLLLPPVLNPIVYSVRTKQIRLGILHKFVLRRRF
Excerpt: as §1, §2

For `CCCCOC(=O)C(C)OC(=O)CCC` (stereo not drawn) [Butyl butyryl actate], the “log EC50 (Table 4 value), OR51E1” value [1] was −3.473.

`CCCCCCCCO` [1-Octanol] was tested, and the “log EC50, MOR203-1” value ([2]; 0 = no response) was −3.563, the “log EC50, MOR261-1” value ([2]; 0 = no response) was −5.192 and the “log EC50, MOR268-1” value ([2]; receptor MOR268-1, 0 = no response) was −3.63. It also gave an EC50 [3] of 69.2 µM and an EC50 [4] of 7.45 µM.

For `CCCCCCCCCO` [1-Nononol], the “log EC50, MOR203-1” value ([2]; 0 = no response) was −4.456, the “log EC50, MOR261-1” value ([2]; 0 = no response) was −4.914 and the EC50 [3] was 69.2 µM. The EC50 [4] was 23.4 µM.

`CCCCCC(=O)O` [Hexanoic acid] was tested, and the “log EC50 of odorant at MOR1-1 (0 = no response)” value ([2]; receptor MOR1-1) was −4.625 and the EC50 [5] was 147 µM.
